# In a melting point compilation (Tetko et al.; mined from patent text by program, amines drawn as free bases though some values may be those of a salt):
row,Compound,melting point
1,Cc1cc(O)ccc1-c1cnc2[nH]c(=O)n(CC3CCCCC3)c2n1,212 to 214 °C
2,COc1ccc(Cc2c(NC(C)C(C)(C)C)c(=O)c2=O)cc1 (stereo not drawn),137 to 138 °C
3,COC(=O)Nc1cc(C(C)(C)C)no1,86.5 to 87 °C
4,CC1(C)CCC(C)(C)c2cc([N+](=O)[O-])ccc21,46 to 50 °C
5,Cc1ccc(N(C)S(=O)(=O)c2cccs2)c2[nH]c(C3=NCC(C#N)S3)cc12 (stereo not drawn),173 to 174 °C
6,Cc1cc(C(=O)O)n(CC(F)(F)F)n1,135 to 139 °C
7,C=C(C1=C(CCC(=O)OC)C(=O)CC1OC(C)=O)c1ccccc1 (stereo not drawn),78 to 79 °C
8,COc1c(Cl)ccc(-c2cc(N)c(Cl)c(CNCC(=O)O)n2)c1F,189 to 191 °C
9,Cc1ccn2c(C)c(-c3ccc4c(c3)NC(=O)C(C)O4)nc2c1 (stereo not drawn),254 to 256 °C
10,O=S(=O)(c1ccc(Cl)cc1)C(c1cccc(CCc2ccccn2)n1)c1cc(F)ccc1F (stereo not drawn),88 to 89 °C
11,Cc1cnc2c(c1)CCCC2NC(=S)NC(=O)c1ccccc1 (stereo not drawn),168 °C
12,CC(=O)CC(=O)N1N=C(c2ccc([N+](=O)[O-])cc2)c2cc3c(cc2CC1C)OCO3 (stereo not drawn),169 to 171 °C
13,CCCCn1ccc(-c2ccc3c(ccn3[C@H]3CC[C@H](O)CC3)c2)c(Cl)c1=O,191 °C
14,CC(C)c1cc(O)ccc1OCc1ccccc1,39 to 40 °C
15,CCCc1c(OCCCc2ccc(OC)c(OC)c2)ccc(C(=O)O)c1O,104 to 110 °C
16,CS(=O)(=O)c1ccc(-n2cc(-c3ccc(F)cc3)nc2-c2ccccn2)cc1,88 to 91 °C
17,C[C@H]1c2onc(-c3ccc(Cl)cc3)c2CCC[C@H]1C(=O)O (relative stereo),149 to 150 °C
18,O=C(O)C(Cc1ccccc1)CS(=O)C1CCCCC1 (stereo not drawn),153 to 154 °C
19,CCCCc1nc(Cl)c(CO)n1Cc1ccc(-c2ccccc2-c2nnn(C(c3ccccc3)(c3ccccc3)c3ccccc3)n2)cc1,168 to 169 °C
20,Fc1ccc2c(c1)Oc1ccccc1-c1nc(SC(F)(F)C(F)F)[nH]c1-2,172 to 175 °C
21,O=c1[nH]c(NCCCNc2ccccn2)ncc1Cc1ccc(Cl)cc1,168 to 171 °C
22,CCCCc1nc(C(C)O)c(C#N)n1Cc1ccc(-c2ccccc2C(=O)O)cc1 (stereo not drawn),200 to 201 °C
23,CCOC(=O)c1c(Cl)nc(CC)n1Cc1ccc2oc(-c3ccccc3N)c(Br)c2c1,53 to 56 °C
24,CS(=O)(=O)NC1CCCOc2ccccc21 (stereo not drawn),105 to 106 °C
25,CN(C)CC(O)C(c1ccccc1)c1ccccc1 (stereo not drawn),72 to 73 °C

row,Compound,melting point
1,CCOC(=O)c1cnn(-c2cc(C)cc(C)c2)c1S(C)(=O)=O,120 to 122 °C
2,CCC(C)(C)c1ccc(OCCCCc2c(O)c(N)c3ccccc3c2C(N)=O)c(C(C)(C)CC)c1,93 to 96 °C
3,Cc1cc(Cl)ccc1N=c1scc(-c2ccc(Cl)c(S(=O)(=O)N(C)C)c2)n1C,137 to 141 °C
4,CCCC(=O)Nc1ccc(-n2cc(CCCOc3c(CC(=O)O)cccc3OC)c(C(C)C)n2)nc1,119 to 120 °C
5,Cc1cccc(C(=O)NNC(=O)c2ccccc2Cc2ccccc2)c1,149 to 150 °C
6,CC(O)c1csc(S(N)(=O)=O)c1 (stereo not drawn),164 to 167 °C
7,COc1cc(CC(=O)Nc2ccc(C3CN(Cc4ccccc4)CC3C(=O)O)cc2)ccc1NC(=O)Nc1ccccc1C (stereo not drawn),255 °C
8,OCc1cnoc1-c1cc(Cl)cc(Cl)c1,104 to 105 °C
9,O=S(=O)(c1ccc(O)cc1)N1c2ccc(Br)cc2-c2ccccc2C1c1ccccc1 (stereo not drawn),262 to 265 °C
10,CCOC(=O)C(C)=C(CC)NC(=O)Nc1cc(OC(C)C)c(Cl)cc1F,104 to 106 °C
11,COC(CNC(=O)C(CS)CC(C)C)OC (stereo not drawn),34 to 37 °C
12,Cc1nc(N2CCN(Cc3ccc(F)cc3)C2=O)sc1C(=O)NCc1cnccn1,185 to 187 °C
13,CCN(CC)C(=O)Nc1ccc2c(c1)C(c1ccccc1F)=NCC(=O)N2C,138 to 139 °C
14,O=C(O)Cc1nsc(NC(=O)c2ccccc2)n1,173 to 175 °C
15,CC(C)CC(=O)Nc1cc(-c2ccnc3c(C(=O)c4cccs4)cnn23)cs1,234 to 235 °C
16,COc1ccc(C(=C/C=C/C(=O)Nc2ccc(-c3cccnc3)cc2)c2ccc(OC)cc2)cc1,210 to 212 °C
17,CCOC(=O)c1c(C)noc1C(=O)O,54 to 58 °C
18,Nc1ccc(C(=O)N2CCC[C@@H]3CCCC[C@H]32)cc1[N+](=O)[O-] (relative stereo),212 to 215 °C
19,CC(=O)Nc1cc2c(cc1[N+](=O)[O-])OCO2,207 to 208 °C
20,CC(C)(C)OC(=O)N1CCC(Nc2nc3ccccc3[nH]2)CC1,249 °C
21,Cc1c(-n2cnc3c(-c4ccccc4)cc(F)cc32)nc2ccc(F)cc2c1C(=O)O,208 to 210 °C
22,O=C(O)[C@@H]1C[C@H]1Sc1nc2ccccc2cc1-c1ccccc1 (relative stereo),168 to 170 °C
23,Nc1nc(/C(=N/OCC(=O)N2CCCCC2)C(=O)O)cs1,177 °C
24,O=C(N1CCCC1)N1Cc2c(C3=NCCO3)ncn2-c2ccccc21,217 to 220 °C
25,CCC1(C2CCCC2)Cc2cc(OC)c(Cl)c(Cl)c2C1=O (stereo not drawn),163 °C

row,Compound,melting point
1,CC(C)Cn1c(=O)n(C)c(=O)c2c(SCCO)n(Cc3cccc4ccccc34)cc21,138 to 141 °C
2,CCOC(=O)c1nc2c(=O)[nH]c3cc(C(F)(F)F)ccc3n2c1CNCc1ccccc1,> 250 °C
3,O=C(NC(=S)Nc1cc(Cl)cc(C(F)(F)F)c1Cl)c1c(F)cccc1F,136 to 141 °C
4,COc1cc(N)c(Cl)cc1C(=O)NCC1(OC)CCN(CCCCCC(=O)c2ccccc2)CC1,91 to 93 °C
5,Cc1cc(=O)n(-c2cc(N)c(Cl)cc2F)c(=O)n1C,> 220 °C
6,CC1(C)CCC(C)(C)c2cc(COc3ccccc3-c3ccccc3C(=O)O)ccc21,75 to 76 °C
7,Nc1c(C(=O)NC(Cc2ccc(OCc3ccccc3)cc2)C(=O)O)oc2cc(-c3ccc(Cl)cc3)ccc12 (stereo not drawn),250 °C
8,Clc1ccc(-c2nc(COCc3ccccc3)ns2)nn1,109 to 110 °C
9,O=c1[nH]ncc(NCCN2CCN(c3cccc4c3OCCO4)CC2)c1Cl,217 to 219 °C
10,CS(=O)c1nc(O)nn1-c1ccccc1 (stereo not drawn),180 to 182 °C
11,CCOc1nc(O)ns1,98 °C
12,CC(=O)Nc1ccc(S(=O)(=O)Nn2cc(-c3ccccc3)c3ccccc32)cc1,190 to 193 °C
13,CCN(CC)CCn1c(=Nc2ccccc2)sc2ncccc2c1=O,61 to 62 °C
14,NS(=O)(=O)c1ccc(-c2cnn(CC(F)(F)F)c(=O)c2-c2ccc(F)cc2)cc1,193 to 195 °C
15,CCc1nc(C)cn1C(=O)c1c(Cl)cccc1Cl,112 to 114 °C
16,Cc1c(C(=O)O)oc2c(C(C)(C)C)ccc(O)c12,219 to 222 °C
17,O=C1c2c(OCc3ccccc3)cccc2-c2nn(CCN(CCO)Cc3ccccc3)c3ccc(NCCNCCO)c1c23,134 to 137 °C
18,O=S(=O)(c1ccc(O)cc1)c1ccc2cc(Br)ccc2c1,178 to 180 °C
19,CC1(COc2ccc(N3CCC(Oc4ccc(OC(F)(F)F)cc4)CC3)cc2)Cn2cc([N+](=O)[O-])nc2O1 (stereo not drawn),165 to 166 °C
20,CC1=C(C(=O)c2ccc(C#N)cc2)C(=O)C2C=CC=CC2C1=O (stereo not drawn),185 to 186 °C
21,CCC(C)CCCC(C)C1CC(=O)C2(C(=O)O)C3=C(CCC12C)C1(C)CCC(O)CC1CC3 (stereo not drawn),195 to 196 °C
22,Cc1ccc(-c2ccc3c(c2)C=C(C(=O)Nc2ccc(Cc4ccccn4)cc2)CCO3)cc1,189 to 190 °C
23,COc1ccc2c3c(ccc2c1)OC(=O)CC3,122 to 123 °C
24,CCCCCCc1ccc(C2CN=C(NC(=O)OC)N2C)cc1 (stereo not drawn),115 to 116 °C
25,O=C(Nc1ccc(Cl)c(Cl)c1)Oc1cccc(N=C=S)c1,118 to 123 °C

row,Compound,melting point
1,CON(C)C(=O)c1cc(N)c(F)cc1Cl,118 °C
2,CN(Cc1ccccc1)C(=O)Cn1nc(-c2ccccc2O)nc1-c1ccccc1O,179 to 180 °C
3,CC(C)(C)c1cc(CCc2ccccc2NC(=O)NCC(C)(C)c2ccc(F)cc2)cc(C(C)(C)C)c1O,179 to 180 °C
4,CCOC(Cc1ccc(OCCn2ccc3ccc(C(=O)C4CC4)nc32)cc1)C(=O)OC (stereo not drawn),159 °C
5,COc1ccc2cc3c(c(-c4ccc(OC(F)(F)F)cc4)c2c1)C(=O)NC3=O,282 to 284 °C
6,COCCOc1ccc(C=O)c(Oc2ncc(C(F)(F)F)cc2Cl)c1,80.5 to 81 °C
7,CN(C)C(=O)c1cccc(C(=O)Nc2cccc3cc(Br)cnc23)c1,157 °C
8,CCCCCC(=O)Nc1ccc2ccn(CCCO)c2c1,87 to 88 °C
9,N#Cc1ccc(N2CCCCC2)c2ccsc12,99 to 100 °C
10,N#Cc1ccc(C(=O)c2ccc(O)c(F)c2)cc1,168 to 170 °C
11,CCOC(=O)c1c(Cl)c2cc(F)ccc2n(Cc2ccccc2)c1=O,118 °C
12,O=C(NCCc1ccccc1CO)c1ccc([N+](=O)[O-])cc1,137 to 138 °C
13,O=c1c2cc(Cl)ccc2nc(CSc2ncnc3[nH]cnc23)n1-c1ccccc1Cl,237 to 238 °C
14,COc1ccc(CCNC(=O)c2ccc3c(c2)C=CC(C)(C)O3)cc1,105 to 107 °C
15,Cc1cccc(C(=O)CSC(=S)Nc2ccc(Cl)cn2)c1,126 °C
16,CC(O)c1ccc(CCNS(=O)(=O)c2ccccc2)cc1 (stereo not drawn),98 to 100 °C
17,CN1CCN(S(=O)(=O)c2cccc(NC(=O)c3cnn4c(C(F)(F)F)cc(-c5ccc(Cl)c(Cl)c5)nc34)c2)CC1,181 °C
18,Cc1nc(Nc2ccc(Cl)cc2)sc1-c1nc2ccccc2c(=O)n1-c1ccccc1,230 to 232 °C
19,Cc1ccc(C(=O)NCCCSc2ccncc2)s1,86 to 87 °C
20,CCCCCCCCOC(=O)NCCCCCCNC(=O)OCCCCCCCC,106 to 107 °C
21,CC(C)C[C@H](NC(=O)OC(C)(C)C)C(=O)C=[N+]=[N-],72 to 74 °C
22,CCOC(=N)c1ccccc1-c1ccc(Cn2c(OCC)nc3cccc(C(=O)OC)c32)cc1,105 to 106 °C
23,O=c1oc(-c2ccc(Sc3ccccc3)cc2)cc(O)c1SCCc1ccccc1,120 to 121 °C
